Laboratory results from patent publication US9452997B2, “Piperidine and piperazine derivatives as autotaxin inhibitors” (Merck Patent GmbH, priority 2009, dated 2016).

target: T1, Recombinant autotaxin (Homo sapiens, UniProt Q13822); assay: Autotaxin assay (Amplex Red, LPC substrate); type: biochemical; conditions: recombinant autotaxin, LPC substrate, Amplex Red detection; values given as upper bounds
T1 construct: made in house; host or cells: Hi5 insect cells (baculovirus)
Procedure: Autotaxin activity is measured indirectly by means of Amplex Red Reagent. In this course, Amplex Red is measured as fluorogenic indicator for generated H2O2. Autotaxin converts substrate lysophosphatidylcholine (LPC) to phosphocholine and lysophosphatidylic acid (LPA). After the conversion phosphocholine is reacted with alkaline phosphatase to obtain inorganic phosphate and choline. During the next step choline is oxidized with choline oxidase to yield betaine, whereby H2O2 is generated. H2O2 reacts with Amplex Red Reagent in the presence of peroxidase (Horseradish peroxidase) in an 1:1 stochiometry and yields highly fluorescent resorufin. The generated fluorescence is measured in a reaction-dependent kinetic mode in order to enable subtraction of fluorescence signals of possible other fluorescent compounds that are not part of the reaction from total measured fluorescence.
1.5 μl of a standard solution or of the compounds of the invention are dissolved in 20 mM Hepes pH 7.2 with maximally 7.7% DMSO in individual concentrations. The resulting solution is pre-incubated together with 10 μl (16 ng) of highly purified recombinant autotaxin in a black 384-hole microtiter plate for 30 min at 22° C.
Thereafter, the reaction is started through the addition of 5 μL-a-lysophosphatidyl-choline (LPC), whereby the final concentration of LPC is 75 μM. The mixture is incubated for 90 min. at 37° C. After the incubation Amplex Red Reagent, peroxidase (Horseradish peroxidase) and choline oxidase are added. The fluorescence is immediately measured at a wavelength of 612 nm with an excitation wavelength of 485 nm in a “Tecan Ultra multimode” fluorescence reader. The activity of autotaxin is indirectly calculated via the amount of detected generated H2O2.
For IC50 analysis, ten serial 1:3 dilutions starting at 30 μM for each compound were run in duplicates.
IC50 values were calculated on normalized data. For normalization, control wells were added to each assay plate and the signal of uninhibited control wells was set to 100%, whereas the signal inhibited by 500 μM C14 LPA, (Avanti Polar Lipids, Cat#857120P) was set to 0%. Curves were fitted and IC50 values calculated by the following model using proprietory analysis software: Y=Bottom+(100−Bottom)/(1+10^((Log IC50−X)*HillSlope)) Where X is the logarithm of concentration. Y is the response; Y starts at Bottom and goes to Top with a sigmoid shape. Material
Microtiter plate: PS-Microplate, 384-hole, small volume, black Corning, Cat#3677
Protein: Recombinant autotaxin (baculoviral Hi5 expression)
Substrate: L-a-lysophosphatidyl choline (chicken egg); Avanti Polar Lipids #830071P
Standard: C14 LPA, Avanti Polar Lipids, Cat#857120P
Detection Reagent: Amplex Red Reagent; Invitrogen #A12222; dissolved in 1.923 ml of DMSO peroxidase Type VI-A (horseradish), Sigma #P6782; dissolved in 7.45 ml of test buffer, Choline Oxidase; Sigma #C5896; dissolved in 2.47 ml test buffer
Detection Reagent Mix: 1:100 dilution of Amplex Red Regent in test buffer
Test buffer: 200 mM Tris-HCl, Merck, Cat #1.08219, pH 7.9; 0.1% BSA, lipid free, Roche Cat#775835

Structure (SMILES) | IC50
O=C(OCc1ccc(F)c(Cl)c1)N1CCC(N2CCN(C(=O)c3ccc4[nH]nnc4c3)CC2)CC1 [Compound 78, 4-[4-(1H-Benzotriazole-5-carbonyl)-piperazin-1-yl]-piperidine-1-carboxylic acid 3-chloro-4-fluoro-benzyl ester] | < 1000 nM
O=C(CCc1ccc(C(F)(F)F)cc1)N1CCC(N2CCN(C(=O)c3ccc4[nH]nnc4c3)CC2)CC1 [Compound 50, 1-{4-[4-(1H-Benzotriazole-5-carbonyl)-piperazin-1-yl]-piperidin-1-yl}-3-(4-trifluoromethyl-phenyl)-propan-1-one] | < 10000 nM
O=C(CCc1ccc(C(F)(F)F)cc1)N1CCC(N2CCN(C(=O)c3cccc(-c4ncc[nH]4)c3)CC2)CC1 [Compound 60, 1-(4-{4-[3-(1H-Imidazol-2-yl)-benzoyl]-piperazin-1-yl}-piperidin-1-yl)-3-(4-trifluoromethyl-phenyl)-propan-1-one] | < 30000 nM
CC(CC(=O)N1CCN(C2CCN(C(=O)c3ccc4[nH]nnc4c3)CC2)CC1)c1ccc(C(F)(F)F)cc1 (stereo not drawn) [Compound 177, 1-{4-[1-(1H-Benzotriazole-5-carbonyl)-piperidin-4-yl]-piperazin-1-yl}-3-(4-trifluoromethyl-phenyl)-butan-1-one] | < 10000 nM
O=C(Nc1ccc2[nH]nnc2c1)C1CC(=O)N(C2CCN(C(=O)OCc3cc(Cl)cc(Cl)c3)CC2)C1 (stereo not drawn) [Compound 4, 4-[4-(1H-Benzotriazol-5-ylcarbamoyl)-2-oxo-pyrrolidin-1-yl]-piperidine-1-carboxylic acid 3,5-dichloro-benzyl ester] | < 1000 nM
O=C(OCc1cc(F)cc(C(F)(F)F)c1)N1CCC(N2CCN(C(=O)c3ccc4[nH]nnc4c3)CC2)CC1 [Compound 75, 4-[4-(1H-Benzotriazole-5-carbonyl)-piperazin-1-yl]-piperidine-1-carboxylic acid 3-fluoro-5-trifluoromethyl-benzyl ester] | < 1000 nM
N[C@@H](Cc1c[nH]cn1)C(=O)N1CCN(C2CCN(C(=O)OCc3ccc(C(F)(F)F)cc3)CC2)CC1 [Compound 89, 4-{4-[(S)-2-Amino-3-(1H-imidazol-4-yl)-propionyl]-piperazin-1-yl}-piperidine-1-carboxylic acid 4-trifluoromethyl-benzyl ester] | < 30000 nM
O=C(c1ccc2[nH]nnc2c1)N1CCC(N2CCN(C(=O)c3nc4cc(C(F)(F)F)ccc4[nH]3)CC2)CC1 [Compound 52, (1H-Benzotriazol-5-yl)-{4-[4-(5-trifluoromethyl-1H-benzoimidazole-2-carbonyl)-piperazin-1-yl]-piperidin-1-yl}-methanone] | < 10000 nM
COc1ccc(Cl)cc1COC(=O)N1CCN(C2CCN(C(=O)c3ccc4[nH]nnc4c3)CC2)CC1 [Compound 38, 4-[1-(1H-Benzotriazole-5-carbonyl)-piperidin-4-yl]-piperazine-1-carboxylic acid 5-chloro-2-methoxy-benzyl ester] | < 1000 nM
CC(C)c1ccc(COC(=O)N2CCC(N3CCN(C(=O)c4ccc5[nH]nnc5c4)CC3)CC2)cc1 [Compound 87, 4-[4-(1H-Benzotriazole-5-carbonyl)-piperazin-1-yl]-piperidine-1-carboxylic acid 4-isopropyl-benzyl ester] | < 1000 nM
O=C(OCc1ccc(C(F)(F)F)c(F)c1)N1CCN(C2CCN(C(=O)c3ccc4[nH]nnc4c3)CC2)CC1 [Compound 158, 4-[1-(1H-Benzotriazole-5-carbonyl)-piperidin-4-yl]-piperazine-1-carboxylic acid 3-fluoro-4-trifluoromethyl-benzyl ester] | < 1000 nM
O=C(OCc1ccc(C(F)(F)F)cc1F)N1CCC(N2CCN(C(=O)c3ccc4[nH]nnc4c3)CC2)CC1 [Compound 73, 4-[4-(1H-Benzotriazole-5-carbonyl)-piperazin-1-yl]-piperidine-1-carboxylic acid 2-fluoro-4-trifluoromethyl-benzyl ester] | < 1000 nM
